Experimental findings from patent publication US10925283B2, “Microbiocidal phenylamidine derivatives” (SYNGENTA PARTICIPATIONS AG, priority 2016, dated 2021) are described below.

Some results are limits rather than exact numbers.

What all share (format): in vivo
Test [1] deals with Puccinia recondita f. sp. tritici. Briefly: Puccinia recondita f. sp. tritici / wheat / leaf disc preventative (brown rust). The note with it: foliar, wheat leaf segments cv. Kanzler, inoculated 1 day after application, assessed 7-9 days after application, read-out: control of Puccinia recondita f. sp. tritici (percent disease control compared to untreated). The procedure: Puccinia recondita f. Sp. Tritici/Wheat/Leaf Disc Preventative (Brown Rust) Wheat leaf segments cv. Kanzler are placed on agar in multiwell plates (24-well format) and sprayed with the formulated test compound diluted in water. The leaf disks are inoculated with a spore suspension of the fungus 1 day after application. The inoculated leaf segments are incubated at 19° C. and 75% rh under a light regime of 12 h light/12 h darkness in a climate cabinet and the activity of a compound is assessed as percent disease control compared to untreated when an appropriate level of disease damage appears in untreated check leaf segments (7-9 days after application).

In test [2] the test system is Blumeria graminis f. sp. tritici (Erysiphe graminis f. sp. tritici). The experiment in a line: Blumeria graminis f. sp. tritici / wheat / leaf disc preventative (powdery mildew on wheat). The note with it: foliar, wheat leaf segments cv. Kanzler, inoculated 1 day after application, assessed 6-8 days after application, read-out: control of Blumeria graminis f. sp. tritici (percent disease control compared to untreated). The procedure: Blumeria graminis f. sp. tritici (Erysiphe graminis f. sp. tritici)/Wheat/Leaf Disc Preventative (Powdery Mildew on Wheat) Wheat leaf segments cv. Kanzler are placed on agar in a multiwell plate (24-well format) and sprayed with the formulated test compound diluted in water. The leaf disks are inoculated by shaking powdery mildew infected plants above the test plates 1 day after application. The inoculated leaf disks are incubated at 20° C. and 60% rh under a light regime of 24 h darkness followed by 12 h light/12 h darkness in a climate chamber and the activity of a compound is assessed as percent disease control compared to untreated when an appropriate level of disease damage appears on untreated check leaf segments (6-8 days after application).

Test [3] deals with Puccinia recondita f. sp. tritici. Briefly: Puccinia recondita f. sp. tritici / wheat / leaf disc curative (brown rust). The note with it: foliar, wheat leaf segments cv. Kanzler, compound applied 1 day after inoculation, assessed 6-8 days after application, read-out: control of Puccinia recondita f. sp. tritici (percent disease control compared to untreated). The procedure: Puccinia recondita f. Sp. Tritici/Wheat/Leaf Disc Curative (Brown Rust) Wheat leaf segments cv. Kanzler are placed on agar in multiwell plates (24-well format). The leaf segments are inoculated with a spore suspension of the fungus. Plates are stored in darkness at 19° C. and 75% rh. The formulated test compound diluted in water is applied 1 day after inoculation. The leaf segments are incubated at 19° C. and 75% rh under a light regime of 12 h light/12 h darkness in a climate cabinet and the activity of a compound is assessed as percent disease control compared to untreated when an appropriate level of disease damage appears in untreated check leaf segments (6-8 days after application).

Take `CCCC1OCC(C)(COCC(O)(c2cc(C)c(/N=C/N(C)CC)cc2OC)C(F)(F)F)CO1` (stereo not drawn) [E.001, N-ethyl-N′-[5-methoxy-2-methyl-4-[2,2,2-trifluoro-1-hydroxy-1-[(5-methyl-2-propyl-1,3-dioxan-5-yl)methoxymethyl]ethyl]phenyl]-N-methyl-formamidine]: the pest or weed control at 200 ppm in test [1], in test [2] and in test [3] was ≥ 80% throughout.
As for `CCN(C)/C=N/c1cc(OC)c(C(O)(COC2CCc3ccccc32)C(F)(F)F)cc1C` (stereo not drawn) [E.005, N-ethyl-N′-[5-methoxy-2-methyl-4-[2,2,2-trifluoro-1-hydroxy-1-(indan-1-yloxymethyl)ethyl]phenyl]-N-methyl-formamidine], the pest or weed control at 200 ppm in test [1], in test [2] and in test [3] was ≥ 80% in each case.
For the compound `CCN(C)/C=N/c1cc(OC)c(C(O)(COCC2(c3ccc(Cl)cc3)CC2)C(F)(F)F)cc1C` (stereo not drawn) [E.007, N′-[4-[1-[[1-(4-chlorophenyl)cyclopropyl]methoxymethyl]-2,2,2-triﬂuoro-1-hydroxy-ethyl]-5-methoxy-2-methyl-phenyl]-N-ethyl-N-methyl-formamidine], the pest or weed control at 200 ppm in test [1], in test [2] and in test [3] was ≥ 80% in each case.
Consider `CCN(C)/C=N/c1cc(OC)c(C(O)(COCC(C)(C)C)C(F)(F)F)cc1C` (stereo not drawn) [E.008, N′-[4-[1-(2,2-dimethylpropoxymethyl)-2,2,2-trifluoro-1-hydroxy-ethyl]-5-methoxy-2-methyl-phenyl]-N-ethyl-N-methyl-formamidine], for which the pest or weed control at 200 ppm in test [1], in test [2] and in test [3] was ≥ 80% each time.
Turning to `CCN(C)/C=N/c1cc(OC)c(C(O)(COCc2ccc3ccccc3c2)C(F)(F)F)cc1C` (stereo not drawn) [E.009, N-ethyl-N′-[5-methoxy-2-methyl-4-[2,2,2-trifluoro-1-hydroxy-1-(2-naphthylmethoxymethyl)ethyl]phenyl]-N-methyl-formamidine], the pest or weed control at 200 ppm in test [1], in test [2] and in test [3] was ≥ 80% throughout.
With `CCN(C)/C=N/c1cc(OC)c(C(O)(COC2Cc3ccccc3C2)C(F)(F)F)cc1C` (stereo not drawn) [E.010, N-ethyl-N′-[5-methoxy-2-methyl-4-[2,2,2-trifluoro-1-hydroxy-1-(indan-2-yloxymethyl)ethyl]phenyl]-N-methyl-formamidine], the pest or weed control at 200 ppm in test [1], in test [2] and in test [3] was ≥ 80% throughout.
With `CCN(C)/C=N/c1cc(OC)c(C(O)(COCCOC)C(F)(F)F)cc1C` (stereo not drawn) [E.012, N-ethyl-N′-[5-methoxy-2-methyl-4-[2,2,2-trifluoro-1-hydroxy-1-(2-methoxyethoxymethyl)ethyl]phenyl]-N-methyl-formamidine], the pest or weed control at 200 ppm in test [1], in test [2] and in test [3] was ≥ 80% throughout.
For the compound `CCN(C)/C=N/c1cc(OC)c(C(O)(COCC(C)(C)COC(C)(C)C)C(F)(F)F)cc1C` (stereo not drawn) [E.015, N′-[4-[1-[(3-tert-butoxy-2,2-dimethyl-propoxy)methyl]-2,2,2-trifluoro-1-hydroxy-ethyl]-5-methoxy-2-methyl-phenyl]-N-ethyl-N-methyl-formamidine], the pest or weed control at 200 ppm in test [1], in test [2] and in test [3] was ≥ 80% in each case.
Take `CCN(C)/C=N/c1cc(OC)c(C(O)(COCCON=C(C)C)C(F)(F)F)cc1C` (stereo not drawn) [E.016, N-ethyl-N′-[5-methoxy-2-methyl-4-[2,2,2-trifluoro-1-hydroxy-1-[2-(isopropylideneamino)oxyethoxymethyl]ethyl]phenyl]-N-methyl-formamidine]: the pest or weed control at 200 ppm in test [1], in test [2] and in test [3] was ≥ 80% throughout.
For `CCC1OCC(C)(COCC(O)(c2cc(C)c(/N=C/N(C)CC)cc2OC)C(F)(F)F)CO1` (stereo not drawn) [E.017, N-ethyl-N′-[4-[1-[(2-ethyl-5-methyl-1,3-dioxan-5-yl)methoxymethyl]-2,2,2-trifluoro-1-hydroxy-ethyl]-5-methoxy-2-methyl-phenyl]-N-methyl-formamidine], the pest or weed control at 200 ppm in test [1], in test [2] and in test [3] was ≥ 80% throughout.
With `CCN(C)/C=N/c1cc(OC)c(C(O)(COCC2(C)COC2)C(F)(F)F)cc1C` (stereo not drawn) [E.018, N-ethyl-N′-[5-methoxy-2-methyl-4-[2,2,2-trifluoro-1-hydroxy-1-[(3-methyloxetan-3-yl)methoxymethyl]ethyl]phenyl]-N-methyl-formamidine], the pest or weed control at 200 ppm in test [1], in test [2] and in test [3] was ≥ 80% in each case.
Turning to `CCN(C)/C=N/c1cc(OC)c(C(O)(COCCC(C)(C)OC)C(F)(F)F)cc1C` (stereo not drawn) [E.019, N-ethyl-N′-[5-methoxy-2-methyl-4-[2,2,2-trifluoro-1-hydroxy-1-[(3-methoxy-3-methyl-butoxy)methyl]ethyl]phenyl]-N-methyl-formamidine], the pest or weed control at 200 ppm in test [1], in test [2] and in test [3] was ≥ 80% in each case.
On to `CCN(C)/C=N/c1cc(OC)c(C(O)(COCCc2ccc(OC)c(OC)c2)C(F)(F)F)cc1C` (stereo not drawn) [E.022, N′-[4-[1-[2-(3,4-dimethoxyphenyl)ethoxymethyl]-2,2,2-trifluoro-1-hydroxy-ethyl]-5-methoxy-2-methyl-phenyl]-N-ethyl-N-methyl-formamidine], for which the pest or weed control at 200 ppm in test [2] and in test [3] was ≥ 80% each time.
`CCN(C)/C=N/c1cc(OC)c(C(O)(COCc2ccco2)C(F)(F)F)cc1C` (stereo not drawn) [E.023, N-ethyl-N′-[5-methoxy-2-methyl-4-[2,2,2-trifluoro-1-(2-furylmethoxymethyl)-1-hydroxy-ethyl]phenyl]-N-methyl-formamidine]: the pest or weed control at 200 ppm in test [1], in test [2] and in test [3] was ≥ 80% in each case.
As to `CCN(C)/C=N/c1cc(OC)c(C(O)(COC2CCC2)C(F)(F)F)cc1C` (stereo not drawn) [E.025, N′-[4-[1-(cyclobutoxymethyl)-2,2,2-trifluoro-1-hydroxy-ethyl]-5-methoxy-2-methyl-phenyl]-N-ethyl-N-methyl-formamidine], the pest or weed control at 200 ppm in test [1], in test [2] and in test [3] was ≥ 80% throughout.
`CCN(C)/C=N/c1cc(OC)c(C(O)(COCCc2ccc(F)cc2)C(F)(F)F)cc1C` (stereo not drawn) [E.026, N-ethyl-N′-[5-methoxy-2-methyl-4-[2,2,2-trifluoro-1-[2-(4-fluorophenyl)ethoxymethyl]-1-hydroxy-ethyl]phenyl]-N-methyl-formamidine]: the pest or weed control at 200 ppm in test [1], in test [2] and in test [3] was ≥ 80% throughout.
Turning to `CCCSCC(O)(c1cc(C)c(/N=C/N(C)CC)cc1OC)C(F)(F)F` (stereo not drawn) [E.062, N-ethyl-N′-[5-methoxy-2-methyl-4-[2,2,2-trifluoro-1-hydroxy-1-(propylsulfanylmethyl)ethyl]phenyl]-N-methyl-formamidine], the pest or weed control at 200 ppm in test [2] and in test [3] was ≥ 80% throughout.
Take `CCN(C)/C=N/c1cc(OC)c(C(O)(CSC)C(F)(F)F)cc1C` (stereo not drawn) [E.070, N-ethyl-N′-[5-methoxy-2-methyl-4-[2,2,2-trifluoro-1-hydroxy-1-(methylsulfanylmethyl)ethyl]phenyl]-N-methyl-formamidine]: the pest or weed control at 200 ppm in test [1] and in test [2] was ≥ 80% in each case.
As to `CCN(C)/C=N/c1cc(OC)c(C(O)(CSC(C)C)C(F)(F)F)cc1C` (stereo not drawn) [E.071, N-ethyl-N′-[5-methoxy-2-methyl-4-[2,2,2-trifluoro-1-hydroxy-1-(isopropylsulfanylmethyl)ethyl]phenyl]-N-methyl-formamidine], the pest or weed control at 200 ppm in test [1] and in test [2] was ≥ 80% in each case.
Consider `CCN(C)/C=N/c1cc(OC)c(C(O)(C2CCS(=O)(=O)CC2)C(F)(F)F)cc1C` (stereo not drawn) [E.076, N′-[4-[1-(1,1-dioxothian-4-yl)-2,2,2-trifluoro-1-hydroxy-ethyl]-5-methoxy-2-methyl-phenyl]-N-ethyl-N-methyl-formamidine], for which the pest or weed control at 200 ppm in test [3] was ≥ 80%.
